Read-outs that look alike come from different tables or passages of the source.
Assays:
[1] = Cytotoxicity SRB assay, HeLa; details: human
Procedure: (§1) All of the compounds were also evaluated for their cytotoxic properties against six human cancer cell lines (lung carcinoma epithelian (A549), colon carcinoma (HCT-116), pancreatic carcinoma (BXPC-3), breast cancer (MCF-7), cervical epithelium (HeLa), and erythroleukemic (K562)) and a human umbilical vein endothelial cell (HUVEC) line (Table 2).
(§2) The cytotoxicity against HCT-116, BXPC-3, HeLa, MCF-7, A-549, and HUVEC cell lines was evaluated using the SRB method. The cytotoxicity against K562 and Vero cell lines was evaluated using the MTT method. Adriamycin was used as a positive control. All cells were cultivated in T-75 flasks containing 10% Fetal Bovine Serum (FBS), Dulbeco’s Modified Eagle Medium (DMEM) with 2 mM L-glutamine, and 1% penicillin-streptomycin at 37 °C in a humidified atmosphere with 5% CO2. For SRB assay, cells in their log phase of growth were seeded into 96 well micro plates (4 × 10^4 cells per well) and followed by treating with test samples at 10 μM or DMSO. After incubation at 37 °C for 72 h, the cells were fixed with the cold 20% (w/v) TCA for 2 h and stained with Sulforhodamine B (SRB) dye for 0.5 h. The protein-bound dye is dissolved in Tris base solution for OD determination at 540 nm on an ELISA Plate Reader. For MTT assay, cells (5 × 10^3 cells per well) were plated in 96 well micro plates. After cell attachment overnight, new medium containing test compounds or DMSO was added. The plate was incubated for 48 h at 37 °C and incubated with 3-(4,5-dimethylthiazol-2-yl)-2,5-diphenyltetrazolium bromide (MTT) for additional 2–4 hours. The assay plate was then read at 490 nm on an ELISA Plate Reader. The data were obtained from experiments carried out in triplicate.

[2] = Cytotoxicity SRB assay, A-549; details: human
Procedure: as §1, §2

[3] = Cytotoxicity SRB assay, BXPC-3; details: human
Procedure: as §1, §2

[4] = Cytotoxicity SRB assay, MCF-7; details: human
Procedure: as §1, §2

[5] = Cytotoxicity SRB assay, HCT-116; details: human
Procedure: as §1, §2

[6] = Cytotoxicity MTT assay, K562; details: human
Procedure: as §1, §2

Leishmania donovani = assay: Antileishmanial assay (PicoGreen); assay type: cell-based
Procedure: The anti-leishmania activity was evaluated following the protocol described by Calderon et al.[39], using the fluorescent DNA intercalator PicoGreen (Invitrogen, USA). The species responsible for visceral leishmaniasis, L. donovani, was used for the assays.

Trypanosoma cruzi = assay: Antitrypanosomal assay (beta-galactosidase reporter, intracellular amastigotes in Vero cells); assay type: cell-based; details: for IC50: Trypanosoma cruzi; on Trypanosoma cruzi IC50: key: I: Inactive
Procedure: Briefly, the expression of the reporter gene for beta-galactosidase (β-Gal) in the Tulahuen clone C4 of T. cruzi is assessed by colorimetry at 570 nm, which correlates with the parasite growth. Assays were performed on the intracellular amastigote form of the parasite infecting African green monkey kidney (Vero) cells, incubated for 120 h at 37 °C with 5% CO2.

[7] = Toxicity against Vero cells (MTT); assay type: cell-based, African green monkey; details: African green monkey, MTT, 48 h
Procedure: It should be emphasized that toxicity is a major concern of drug discovery and development. The above active compounds were evaluated for in vitro toxicity against a mammalian kidney cell line (Vero). The selectivity index (SI) was used as the evaluation parameter of drug potential of the test samples by comparing the toxicity on the Vero cell line (CC50) and the selective inhibitory effect on P. falciparum, L. donovani or T. cruzi (IC50) calculated here as CC50/IC50.
Adriamycin was used as a positive control.

Plasmodium falciparum = assay: Antiplasmodial assay (PicoGreen growth inhibition in infected human erythrocytes); assay type: cell-based
Procedure: Activity against the causative agent of malaria was performed by culturing human erythrocytes and infecting them with P. falciparum, as described by Trager and Jensen[36]. Briefly, the W2 (Chloroquine resistant) and 3D7 (Chloroquine sensitive) strains of P. falciparum were cultured in RPMI 1640 medium (Sigma-Aldrich, USA) supplemented with 10% human serum (from O+ blood) at a hematocrit of 2% erythrocytes (O+) at 37 °C in a gas mixture of 5% CO2, 5% O2, and 90% N2. Parasites were synchronized by a temperature cycling technique as described by Almanza et al.[37]

[8] = BXPC-3 pancreatic carcinoma cells
[9] = Tulahuen clone C4, intracellular amastigotes in Vero cells, 120 h
[10] = in vitro, read-out: Leishmania donovani IC50
[11] = Vero cells (mammalian kidney cell line)
[12] = Erythrocyte, in vitro, W2 and 3D7 strains cultured, strain of the values not stated, read-out: Plasmodium falciparum IC50
[13] = read-out: Leishmania donovani IC50
[14] = 3D7, Erythrocyte, read-out: Plasmodium falciparum IC50

Compound	IC50 at 72 h ([1]; HeLa cervical epithelium cells) [µM]	IC50 at 72 h ([2]; A-549 lung carcinoma cells) [µM]	IC50 at 72 h [3, 8] [µM]	IC50 at 72 h ([4]; MCF-7 breast cancer cells) [µM]	IC50 at 72 h ([5]; HCT-116 colon carcinoma cells) [µM]	IC50 at 48 h ([6]; K562 erythroleukemic cells) [µM]	Trypanosoma cruzi IC50 (Trypanosoma cruzi; [9])	IC50 (Leishmania donovani; [10]) [µM]	IC50 (Plasmodium falciparum; [12]) [µM]	further results
COc1cccc2c1C(=O)c1c(O)c3c(c(O)c1C2=O)C[C@@](O)(C(=O)CO)C[C@@H]3O[C@H]1C[C@H](N)[C@H](O)[C@H](C)O1 [Adriamycin, reference compound]	0.6	0.16	0.033	0.86	0.21	0.25				
C[C@@H]1[C@H](O)[C@@H](C)/C=C/C=C/C=C/C=C/C=C/C=C/C=C/[C@H](O[C@@H]2O[C@H](C)[C@@H](O)[C@H](N)[C@@H]2O)C[C@@H]2O[C@](O)(C[C@@H](O)C[C@@H](O)[C@H](O)CC[C@@H](O)C[C@@H](O)CC(=O)O[C@H]1C)C[C@H](O)[C@H]2C(=O)O [Amphotericin B, reference compound]										IC50 (Leishmania donovani; positive control, sentence ends with ref 40, read-out: IC50 of positive control, antileishmanial assay): 0.0763 µM
COc1cc(O)c2c(c1)/C=C/C[C@H](O)[C@@H]1OC(C)(C)O[C@H]1/C=C/C[C@H](C)OC2=O [Compound 1, cochliomycin A]	> 10	> 10	> 10	> 10	> 10	> 10	I	> 15.7	30.7	CC50 at 48 h [7, 11]: 96 µM
COc1cc(O)c2c(c1Cl)/C=C/C[C@H](O)[C@H](O)[C@@H](O)CCC[C@H](C)OC2=O [Compound 2, cochliomycin C]							I			IC50 at 72 h [1]: > 10 µM; IC50 at 72 h [2]: > 10 µM; IC50 at 72 h [3]: > 10 µM; IC50 at 72 h [4]: > 10 µM; IC50 (Leishmania donovani; [13]): > 15.7 µM; IC50 at 72 h [5]: > 10 µM; IC50 (Plasmodium falciparum; [14]): > 30.7 µM; IC50 at 48 h [6]: > 10 µM
COc1cc(O)c2c(c1)/C=C/C[C@H](O)[C@@H](O)C(=O)/C=C/C[C@H](C)OC2=O [Compound 4]	> 10	> 10	> 10	> 10	> 10	> 10	I	15.2	> 30.7	
COc1cc(O)c2c(c1)/C=C/C[C@@H](O)[C@@H](O)C(=O)/C=C/C[C@H](C)OC2=O [Compound 5]	> 10	> 10	> 10	> 10	> 10	> 10	I	> 15.7	> 30.7	
COc1cc(O)c2c(c1)/C=C/C[C@H](O)[C@H](O)C(=O)CCC[C@H](C)OC2=O [Compound 9]							I			IC50 at 72 h [1]: > 10 µM; IC50 at 72 h [2]: > 10 µM; IC50 at 72 h [3]: > 10 µM; IC50 at 72 h [4]: > 10 µM; IC50 (Leishmania donovani; [13]): > 15.7 µM; IC50 at 72 h [5]: > 10 µM; CC50 at 48 h [7]: 131 µM; IC50 (Plasmodium falciparum; [14]): > 30.7 µM; IC50 at 48 h [6]: > 10 µM
COc1cc(O)c2c(c1)/C=C/C[C@H](O)[C@H](O)[C@@H](O)CCC[C@H](C)OC2=O [Compound 10]							I			IC50 at 72 h [1]: > 10 µM; IC50 at 72 h [2]: > 10 µM; IC50 at 72 h [3]: > 10 µM; IC50 at 72 h [4]: > 10 µM; IC50 (Leishmania donovani; [13]): > 15.7 µM; IC50 at 72 h [5]: > 10 µM; CC50 at 48 h [7]: 274 µM; IC50 (Plasmodium falciparum; [14]): > 30.7 µM; IC50 at 48 h [6]: > 10 µM
CCC(=O)Oc1cc(OC)cc2c1C(=O)O[C@@H](C)C/C=C/[C@H](OC(=O)CC)[C@@H](OC(=O)CC)[C@@H](OC(=O)CC)C/C=C/2 [Compound 14]	> 10	> 10	> 10	> 10	> 10	> 10	I	> 15.7	> 30.7	
COc1cc(O)c2c(c1Cl)/C=C/C[C@H](O)[C@H](O)[C@@H](O)/C=C/C[C@H](C)OC2=O [Compound 16]	> 10	> 10	> 10	> 10	> 10	> 10	I	> 15.7	> 30.7	CC50 at 48 h [7, 11]: 260 µM
COc1cc(O)c2c(c1Cl)/C=C/C[C@H](O)[C@@H]1OC(C)(C)O[C@H]1/C=C/C[C@H](C)OC2=O [Compound 17]	> 10	> 10	> 10	> 10	> 10	> 10	I	> 15.7	> 30.7	CC50 at 48 h [7, 11]: 143 µM
COc1cc(OC(C)=O)c2c(c1Cl)/C=C/C[C@H](OC(C)=O)[C@H](OC(C)=O)[C@@H](OC(C)=O)CCC[C@H](C)OC2=O [Compound 19]							I			IC50 at 72 h [1]: > 10 µM; IC50 at 72 h [2]: > 10 µM; IC50 at 72 h [3]: > 10 µM; IC50 at 72 h [4]: > 10 µM; IC50 (Leishmania donovani; [13]): > 15.7 µM; IC50 at 72 h [5]: > 10 µM; IC50 (Plasmodium falciparum; [14]): > 30.7 µM; IC50 at 48 h [6]: > 10 µM
COc1cc2c(c(OC(=O)c3cccs3)c1)C(=O)O[C@@H](C)C/C=C/C(=O)[C@@H](OC(=O)c1cccs1)[C@@H](OC(=O)c1cccs1)C/C=C/2 [Compound 22]								3.03	20.1	IC50 (Trypanosoma cruzi; Tulahuen clone C4, intracellular amastigotes in Vero cells, 120 h, read-out: Trypanosoma cruzi IC50): 6.31 µM; CC50 at 48 h [7, 11]: 11.5 µM
O=C(Cn1ccnc1[N+](=O)[O-])NCc1ccccc1 [benznidazole, reference compound]										IC50 (Trypanosoma cruzi; Vero, control drug, sentence ends with ref 41, read-out: IC50 of control drug, antitrypanosomal assay): 3.85 µM
CCN(CC)CCCC(C)Nc1ccnc2cc(Cl)ccc12 (stereo not drawn) [chloroquine, reference compound]										IC50 (Plasmodium falciparum; Erythrocyte, read-out: IC50 of positive control, antiplasmodial assay): 0.0329 µM
